# Data as given in patent US20100267827A1, “PHENYL-PRENYL-ETHER DERIVATIVES FOR THE TREATMENT OF COGNITIVE, NEURODEGENERATIVE OR NEURONAL DISEASES OR DISORDERS” (NOSCIRA, S.A., priority 2006, published 2010).
# Key:
# [1] = biological target: T1, rhBACE-1 β-Secretase recombinant human (Homo sapiens, UniProt P56817); assay: BACE assay (FRET); type: biochemical; settings: percentage of enzyme activity remaining
# T1 construct: purchased R&D Systems 931-AS
# Description: The aim of this assay is to determine if a compound, either synthetic or of marine origin, is a BACE-1 inhibitor, to avoid the formation of Aβ. This assay is based on FRET technology (Fluorescence Resonance Energy Transfer). FRET is used to measure cleavage of a peptide substrate, among other uses. […] When a substrate peptide cleavage occurs, the energy balance is broken and all the donor fluorescence can be observed. The increase in fluorescence is linearly related to the rate of proteolysis (Gordon, G W et al., 1998). In this assay the reaction occurs between an enzyme, purified BACE-1, and a fluorogenic peptidic substrate who present the “Swedish mutation”. The peptide cleavage by BACE-1 produces fluorescence energy and enzymatic activity can be quantified.
# The reagents which are used in this assay are the following:
# rhBACE-1 β-Secretase recombinant human (R&D Systems. Ref. 931-AS).
# Fluorogenic Peptide Substrate IV (R&D Systems. Ref. ES004).
# Beta-SECRETASE INHIBITOR H-4848. (BACHEM. Ref. H-4848.0001).
# The assay is carried out in a 96 wells microplate. The final concentration of substrate is 3.5 μM per well, and the enzyme concentration is 0.5 μg/ml. The final volume of the assay is 100 μl per well and all reagents are diluted in Reaction Buffer. The compounds are tested at a concentration of 10^−5 and 10^−6 M. The control in the assay is the commercial inhibitor R-Secretase inhibitor H-4848 from BACHEM, which is tested at 300 nM. All the samples and controls are studied by duplicate.
# The plate is mixed gently and changes in the fluorescence are measured using a fluorimeter plate reader, with 320 nm excitation filter and 405 nm emission filter. The temperature should be preferably maintained between 25 and 30° C. Measurements are carried out every ten minutes during an hour. The first measure is subtracted from the last to calculate the fluorescence increase, evaluating the enzymatic activity. The 100% activity is calculated as the mean of the results of wells without sample or inhibitor.
# In the cases where abnormal effects in fluorescence were detected, BACE inhibition activity was assayed using BACE-1 (beta-Secretase) FRET ASSAY KIT (Invitrogen, Ref. P2985). Fluorescence was measured with a fluorimeter plate reader, with 544 nm excitation filter and 580 nm emission filter.
# (§1) The compounds of formula (I) of the present invention where submitted to the above indicated assays, in order to determine both their GSK-3 inhibition activity and BACE activity inhibition. The results are indicated in Table I, in percentage of the respective enzyme activity.
# [2] = biological target: recombinant human glycogen synthase kinase 3 beta (Homo sapiens, UniProt P49841); assay: GSK-3 beta inhibition assay; type: biochemical; settings: 0.5 h, percentage of enzyme activity remaining; for remaining activity at 25 µM: 25 μM compound; for remaining activity at 50 µM: 50 μM compound
# Description: The GSK-3 beta activity of the compounds of formula (I) according to the present invention was determined by incubation of a mixture of recombinant human GSK-3 enzyme, a phosphate source and GSK-3 substrate in the presence and in the absence of the corresponding test compound, and by measuring the GSK-3 activity of this mixture. The compounds where tested at final concentrations of 25 and 50 μM.
# Recombinant human glycogen synthase kinase 3 beta was assayed in MOPS 11 mM, pH 7.4, EDTA 0.2 mM, EGTA 1.25 mM, MgCl2 26.25 mM and sodium orthovanadate 0.25 mM in the presence of 62.5 μM of Phospho-Glycogen Synthase Peptide-2 (GS-2), 0.5 μCi gamma-^33P-ATP and unlabelled ATP at a final concentration of 12.5 μM. The final assay volume was 20 μl. After incubation for 30 minutes at 30° C., 15 μl aliquots were spotted onto P81 phosphocellulose papers. Filters were washed four times for at least 10 minutes each and counted with 1.5 ml of scintillation cocktail in a scintillation counter.
# as §1
# Sequence of recombinant human glycogen synthase kinase 3 beta (P49841 whole entry): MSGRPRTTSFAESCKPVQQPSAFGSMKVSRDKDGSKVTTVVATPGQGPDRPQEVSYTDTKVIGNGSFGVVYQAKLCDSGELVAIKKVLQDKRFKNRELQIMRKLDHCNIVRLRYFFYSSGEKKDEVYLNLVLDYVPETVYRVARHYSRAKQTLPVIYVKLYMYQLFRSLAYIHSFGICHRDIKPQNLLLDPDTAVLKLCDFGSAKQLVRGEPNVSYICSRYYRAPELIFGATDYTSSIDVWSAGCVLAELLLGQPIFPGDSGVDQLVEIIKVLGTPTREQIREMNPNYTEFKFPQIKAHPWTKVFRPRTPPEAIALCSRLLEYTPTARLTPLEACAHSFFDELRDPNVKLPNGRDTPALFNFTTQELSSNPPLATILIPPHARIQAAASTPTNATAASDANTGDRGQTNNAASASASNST
# T1 sequence (P56817 46-457 limits assumed): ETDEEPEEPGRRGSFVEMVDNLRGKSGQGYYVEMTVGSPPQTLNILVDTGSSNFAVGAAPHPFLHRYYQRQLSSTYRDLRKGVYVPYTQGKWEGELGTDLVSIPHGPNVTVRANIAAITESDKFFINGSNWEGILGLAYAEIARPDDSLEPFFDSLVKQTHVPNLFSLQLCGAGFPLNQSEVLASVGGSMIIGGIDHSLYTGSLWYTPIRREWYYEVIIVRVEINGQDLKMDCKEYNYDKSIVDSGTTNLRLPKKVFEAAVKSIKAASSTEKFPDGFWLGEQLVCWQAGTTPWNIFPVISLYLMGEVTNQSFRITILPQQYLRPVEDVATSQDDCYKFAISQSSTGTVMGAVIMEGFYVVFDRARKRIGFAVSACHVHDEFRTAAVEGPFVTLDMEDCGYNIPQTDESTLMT
% of BACE activity ([1]; 1 μM compound),% of BACE activity ([1]; 10 μM compound),remaining activity at 25 µM [2],remaining activity at 50 µM [2],Structure (SMILES)
100%,18.5 ± 12.1%,88.1%,68%,"COC(=O)c1ccc(OC)c(OC/C=C(\C)CCC=C(C)C)c1 [Compound 2, 3-(3,7-Dimethyl-octa-2,6-dienyloxy)-4-methoxy-benzoic acid methyl ester]"
13.3%,0%,94.4%,80.7%,COC(=O)c1cccc(OC/C=C(\C)CCC=C(C)C)c1 [Compound 5]
87.5 ± 17%,36.5 ± 38%,70.3%,80%,CC(C)=CCC/C(C)=C/COc1cccc(C(=O)O)c1 [Compound 6]
100%,81 ± 8%,85.6%,71%,"COC(=O)c1ccc(N)c(OC/C=C(\C)CCC=C(C)C)c1 [Compound 8, 4-Amino-3-(3,7-dimethyl-octa-2,6-dienyloxy)-benzoic acid methyl ester]"
100%,80 ± 13%,91.7%,59.5%,"COC(=O)c1ccc(N)c(OC/C=C(\C)CC/C=C(\C)CCC=C(C)C)c1 [Compound 9, 4-Amino-3-(3,7,11-trimethyl-dodeca-2,6,10-trienyloxy)-benzoic acid methyl ester]"
86.5 ± 5%,82 ± 10%,56%,19.5%,COC(=O)c1ccc(OC)c(OC/C=C(\C)CCC=C(C)C)c1C/C=C(\C)CCC=C(C)C [Compound 10]
48 ± 2%,8 ± 3%,84.8%,58.2%,"COc1ccc(C(=O)OC/C=C(\C)CCC=C(C)C)cc1OC/C=C(\C)CCC=C(C)C [Compound 11, 3-(3,7-Dimethyl-octa-2,6-dienyloxy)-4-methoxy-benzoic acid 3,7-dimethyl-octa-2,6-dienyl ester]"
99 ± 7%,42 ± 18%,47.5%,27.9%,"COc1ccc(C(=O)NC/C=C(\C)CCC=C(C)C)cc1OC/C=C(\C)CCC=C(C)C [Compound 12, N-(3,7-Dimethyl-octa-2,6-dienyl)-3-(3,7-dimethyl-octa-2,6-dienyloxy)-4-methoxy-benzamide]"
49 ± 5%,0%,54.6%,7.36%,COc1ccc(C(=O)OCC=C(C)C)cc1OC/C=C(\C)CCC=C(C)C [Compound 13]
100%,79 ± 13%,90.4%,65.5%,"CC(C)=CCC/C(C)=C/CC/C(C)=C/COc1cc(C(=O)O)ccc1N [Compound 17, 4-Amino-3-(3,7,11-trimethyl-dodeca-2,6,10-trienyloxy)-benzoic acid]"
3.5 ± 5%,0%,,85.1%,"COC(=O)c1ccc(NC(C)=O)c(OC/C=C(\C)CCC=C(C)C)c1 [Compound 19, 4-Acetylamino-3-(3,7-dimethyl-octa-2,6-dienyloxy)-benzoic acid methyl ester]"
2 ± 4.5%,0%,74.4%,40%,COC(=O)c1ccc(NC(C)=O)c(OC/C=C(\C)CC/C=C(\C)CCC=C(C)C)c1 [Compound 20]
68.5 ± 0.7%,29 ± 10%,90%,57.5%,"CC(=O)Nc1ccc(C(=O)O)cc1OC/C=C(\C)CC/C=C(\C)CCC=C(C)C [Compound 21, 4-Acetylamino-3-(3,7,11-trimethyl-dodeca-2,6,10-trienyloxy)-benzoic acid]"
61 ± 133%,0%,53%,18.6%,"COCOC(=O)c1ccc(OC)c(OC/C=C(\C)CCC=C(C)C)c1 [Compound 23, 3-(3,7-Dimethyl-octa-2,6-dienyloxy)-4-methoxy-benzoic acid methoxymethyl ester]"
30 ± 7%,26 ± 13%,12.4%,4.55%,"CC(C)=CCC/C(C)=C/CC/C(C)=C/COc1ccc(C(=O)O)cc1OC/C=C(\C)CC/C=C(\C)CCC=C(C)C [Compound 24, 3,4-Bis-(3,7,11-trimethyl-dodeca-2,6,10-trienyloxy)-benzoic acid]"
100%,50 ± 16%,48.3%,7.61%,CCOC(=O)c1ccc(O)c(OC/C=C(\C)CCC=C(C)C)c1 [Compound 27]
100%,89 ± 6%,90.8%,95.7%,CC(C)=CCC/C(C)=C/COc1cc(C(=O)O)ccc1O [Compound 28]
